Some test systems named below: A498 renal; BT-549 breast; CCRF-CEM leukemia; DU-145 prostate; MCF7 breast; MOLT-4 leukemia; RPMI-8226 leukemia; RXF 393 renal; SNB-19 CNS; UACC-62 melanoma.
What all share (experiment): NCI anticancer screen, dose series, 48 h

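Tested at 5 concentrations; 48 h exposure; 96-well plates; endpoints linearly interpolated, else capped at highest concentration. GI50 = concentration required for 50% inhibition of growth. TGI: concentration producing complete growth inhibition.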 Where only a bound is given, the exact number is not on record here.

Take `Cn1c(=O)n(C)c2cc(CNCCNc3ccnc4cc(Cl)ccc34)ccc21`: the GI50 is 1570 nM with A498 renal; > 100000 nM in the assay with BT-549 breast; 30700 nM in the assay with CCRF-CEM leukemia; 38500 nM with DU-145 prostate; 28600 nM in the assay on MCF7 breast; 21100 nM in the assay on MOLT-4 leukemia. For the same compound, the GI50 was 20900 nM in the assay with RPMI-8226 leukemia, 12600 nM in the assay on RXF 393 renal, 27900 nM in the assay with SNB-19 CNS and 17700 nM with UACC-62 melanoma. Further, the TGI is 27000 nM with A498 renal; > 100000 nM in the assay with BT-549 breast; > 100000 nM in the assay with CCRF-CEM leukemia; > 100000 nM in the assay on DU-145 prostate; > 100000 nM in the assay on MCF7 breast; > 100000 nM with MOLT-4 leukemia. Further, the TGI was 65600 nM in the assay with RPMI-8226 leukemia, 31200 nM in the assay with RXF 393 renal, > 100000 nM in the assay on SNB-19 CNS and 35600 nM with UACC-62 melanoma.
As for `Clc1ccc(/C=C/c2ccc3ccccc3n2)cc1`, the GI50 in the assay on A498 renal was 306 nM; with BT-549 breast it was 3160 nM; with CCRF-CEM leukemia, 508 nM; with DU-145 prostate, 2230 nM; with MCF7 breast, 467 nM; in the assay with MOLT-4 leukemia, 3010 nM. In addition, the GI50 in the assay on RPMI-8226 leukemia is 482 nM; with RXF 393 renal, 648 nM; with SNB-19 CNS, 1560 nM; in the assay on UACC-62 melanoma, 1470 nM. Besides, the TGI in the assay with A498 renal was > 100000 nM; in the assay with BT-549 breast it was > 71800 nM; with CCRF-CEM leukemia, > 100000 nM; with DU-145 prostate, 5410 nM; with MCF7 breast, > 100000 nM; in the assay with MOLT-4 leukemia, > 100000 nM. Besides, the TGI is 18600 nM in the assay on RPMI-8226 leukemia, > 74700 nM in the assay with RXF 393 renal, > 100000 nM in the assay with SNB-19 CNS and > 100000 nM with UACC-62 melanoma.
As to `CCCN(CCC)c1ccc(C=O)c(Cl)c1`, the GI50 in the assay with A498 renal was 141 nM; with BT-549 breast, 24000 nM; in the assay with CCRF-CEM leukemia, 35500 nM; in the assay with DU-145 prostate, 48000 nM; in the assay on MCF7 breast it was 1800 nM; with MOLT-4 leukemia, 29600 nM. Also, the GI50 in the assay with RPMI-8226 leukemia is 40100 nM; with RXF 393 renal, 14200 nM; in the assay with SNB-19 CNS, 25800 nM; with UACC-62 melanoma it was 317 nM. Besides, the TGI in the assay on A498 renal was 289 nM; in the assay on BT-549 breast, > 80400 nM; with CCRF-CEM leukemia, > 100000 nM; with DU-145 prostate, > 100000 nM; in the assay with MCF7 breast, 29400 nM; in the assay on MOLT-4 leukemia, 97100 nM. The TGI is > 100000 nM in the assay with RPMI-8226 leukemia, 33600 nM in the assay with RXF 393 renal, > 100000 nM in the assay with SNB-19 CNS and 1810 nM with UACC-62 melanoma.
Regarding `CCOC(=O)c1sc(-c2ccc(OS(=O)(=O)C[C@]34CCC(CC3=O)C4(C)C)c(C=O)c2)nc1C`, the GI50 in the assay on A498 renal was 127 nM; in the assay on BT-549 breast, 916 nM; with CCRF-CEM leukemia it was 1010 nM; in the assay on DU-145 prostate it was 1550 nM; with MCF7 breast it was 858 nM; with MOLT-4 leukemia, 797 nM. The GI50 in the assay on RPMI-8226 leukemia is 822 nM; with RXF 393 renal it was 943 nM; in the assay with SNB-19 CNS it was 898 nM; with UACC-62 melanoma, 745 nM. Besides, the TGI in the assay on A498 renal was 1170 nM; in the assay with BT-549 breast, 2480 nM; with CCRF-CEM leukemia it was > 50000 nM; in the assay with DU-145 prostate, > 50000 nM; in the assay with MCF7 breast, 2470 nM; with MOLT-4 leukemia, 2220 nM. Further, the TGI with RPMI-8226 leukemia came out at 3190 nM; in the assay with RXF 393 renal it was 2750 nM; with SNB-19 CNS, 2150 nM; in the assay on UACC-62 melanoma, 1760 nM.
On to `COc1cc(F)ccc1-c1cc(Nc2cc(CS(C)(=N)=O)ccn2)ncc1F` (stereo not drawn), for which the GI50 with A498 renal was 71.3 nM; with BT-549 breast it was 73.9 nM; in the assay on CCRF-CEM leukemia it was 34.4 nM; in the assay on DU-145 prostate, 77.3 nM; in the assay with MCF7 breast, 39.1 nM; with MOLT-4 leukemia, 111 nM. Besides, the GI50 in the assay on RPMI-8226 leukemia was 110 nM; in the assay on RXF 393 renal, 22.1 nM; in the assay with SNB-19 CNS, 64.4 nM; in the assay on UACC-62 melanoma, 55.5 nM. Besides, the TGI in the assay on A498 renal was 392 nM; with BT-549 breast it was 2060 nM; with CCRF-CEM leukemia, > 100000 nM; in the assay with DU-145 prostate, > 100000 nM; in the assay on MCF7 breast, > 100000 nM; in the assay with MOLT-4 leukemia, 985 nM. Besides, the TGI in the assay on RPMI-8226 leukemia is 662 nM; in the assay with RXF 393 renal it was 53.6 nM; in the assay on SNB-19 CNS, > 100000 nM; in the assay on UACC-62 melanoma, 342 nM.
Consider `CC12CC(=O)Nc3ccccc3N1C(c1ccccc1)=NO2` (stereo not drawn), for which the TGI in the assay on A498 renal, in the assay with BT-549 breast, with CCRF-CEM leukemia, in the assay on DU-145 prostate, with MCF7 breast and in the assay on MOLT-4 leukemia was > 100000 nM each time. For the same compound, the TGI with RPMI-8226 leukemia, with RXF 393 renal, in the assay with SNB-19 CNS and in the assay on UACC-62 melanoma was > 100000 nM throughout.
Regarding `CC(C)(C)NCC(O)COc1c(Br)c(Br)c(Br)c2c1OC(C)(C)C2` (stereo not drawn), the GI50 was 1850 nM in the assay with A498 renal; 1690 nM in the assay on BT-549 breast; 1970 nM in the assay with CCRF-CEM leukemia; 1510 nM in the assay with DU-145 prostate; 1760 nM with MCF7 breast; 1590 nM in the assay on MOLT-4 leukemia. Further, the values for the GI50 in the assay on RPMI-8226 leukemia, in the assay with RXF 393 renal and with UACC-62 melanoma were 1450 nM, 2140 nM and 1880 nM, respectively. The TGI worked out at 3330 nM in the assay on A498 renal; 3110 nM with BT-549 breast; 3760 nM in the assay with CCRF-CEM leukemia; 2840 nM in the assay with DU-145 prostate; 3240 nM with MCF7 breast; 3160 nM in the assay with MOLT-4 leukemia. In addition, the TGI in the assay on RPMI-8226 leukemia is 3090 nM; in the assay with RXF 393 renal, 3830 nM; in the assay with UACC-62 melanoma it was 3320 nM.

The record behind these values is PubChem BioAssay (NCI).
